For data set [1], the target named is Epidermal growth factor receptor (Homo sapiens, UniProt P00533). Description: Inhibition of human N-terminal GST-tagged EGFR catalytic domain (669 to 1210 residues) expressed in baculovirus expression system using Fl-EEPLYWSFPAKKK-CONH2 peptide substrate preincubated for 30 mins followed by substrate addition measured after 30 mins by Caliper Mobility Shift Assay. To be noted: read-out: Ki(app).

For data set [2], the target named is T1, Epidermal growth factor receptor (Homo sapiens, UniProt P00533, L858R/T790M). The data set is described as follows: Inhibition of human EGFR catalytic domain (668 to 1210 residues) T790M/L858R double mutant using Fl-EEPLYWSFPAKKK-CONH2 peptide substrate preincubated for 30 mins followed by substrate addition measured after 30 mins by Caliper Mobility Shift Assay. It counts as protein assay. To be noted: read-out: Ki(app).

The species entered for data set [3] is Homo sapiens. The data set is described as follows: Selectivity ratio of Ki(app) for human N-terminal GST-tagged EGFR catalytic domain (669 to 1210 residues) expressed in baculovirus expression system to Ki(app) for human EGFR catalytic domain (668 to 1210 residues) T790M/L858R double mutant.
For data set [4], the species on record is Homo sapiens. The data set is described as follows: Selectivity ratio of Ki(app) for JAK1 (unknown origin) to Ki(app) for human EGFR catalytic domain (668 to 1210 residues) T790M/L858R double mutant.
Data set [5] is filed under the species Homo sapiens. Description: Selectivity ratio of Ki(app) for JAK2 (unknown origin) to Ki(app) for human EGFR catalytic domain (668 to 1210 residues) T790M/L858R double mutant.
The target of data set [6] is T2, Tyrosine-protein kinase JAK2 (Homo sapiens, UniProt O60674). Description: Inhibition of JAK2 (unknown origin) at 1 uM.
Data set [7] in a line: Kinetic solubility of compound in pH7.4 DMSO/phosphate buffered saline after 24 hrs by chemiluminescent nitrogen detection method. The format is physicochemical. The conditions noted are these: pH 7.4, read-out: Kinetic_solubility.
The nature of data set [8]: Lipophilicity, log D of compound at pH 7.4. It counts as physicochemical. To be noted: buffer.
In data set [9] the target is T1, Epidermal growth factor receptor. Description: Inhibition of EGFR T790M/L858R double mutant phosphorylation in human H1975 cells preincubated for 1 hr followed by EGF stimulation for 8 mins by electrochemiluminescent immunoassay. It counts as cell-based.
In another data set the test system is H1975. Description: Ratio of EC50 for wild type EGFR phosphorylation in human H292 cells to EC50 for EGFR T790M/L858R double mutant phosphorylation in human H1975 cells. It counts as cell-based.
Data set [10] deals with Tyrosine-protein kinase JAK1 (Homo sapiens, UniProt P23458). The data set is described as follows: Inhibition of JAK1 (unknown origin). The conditions noted are these: read-out: Ki(app).
The target in data set [11] is T2, Tyrosine-protein kinase JAK2. The data set is described as follows: Inhibition of JAK2 (unknown origin). To be noted: read-out: Ki(app).
Data set [12] is filed under the species Homo sapiens. The data set is described as follows: Selectivity ratio of Ki(app) for JAK1 (unknown origin) to Ki(app) for JAK2 (unknown origin).

≈ marks a conversion by molar mass, not a printed value. Calls of active or inactive are those of the source. No cut-off for these calls is given here.

Chain of Epidermal growth factor receptor (Homo sapiens, UniProt P00533) (P00533 whole entry, the tested form may be a part): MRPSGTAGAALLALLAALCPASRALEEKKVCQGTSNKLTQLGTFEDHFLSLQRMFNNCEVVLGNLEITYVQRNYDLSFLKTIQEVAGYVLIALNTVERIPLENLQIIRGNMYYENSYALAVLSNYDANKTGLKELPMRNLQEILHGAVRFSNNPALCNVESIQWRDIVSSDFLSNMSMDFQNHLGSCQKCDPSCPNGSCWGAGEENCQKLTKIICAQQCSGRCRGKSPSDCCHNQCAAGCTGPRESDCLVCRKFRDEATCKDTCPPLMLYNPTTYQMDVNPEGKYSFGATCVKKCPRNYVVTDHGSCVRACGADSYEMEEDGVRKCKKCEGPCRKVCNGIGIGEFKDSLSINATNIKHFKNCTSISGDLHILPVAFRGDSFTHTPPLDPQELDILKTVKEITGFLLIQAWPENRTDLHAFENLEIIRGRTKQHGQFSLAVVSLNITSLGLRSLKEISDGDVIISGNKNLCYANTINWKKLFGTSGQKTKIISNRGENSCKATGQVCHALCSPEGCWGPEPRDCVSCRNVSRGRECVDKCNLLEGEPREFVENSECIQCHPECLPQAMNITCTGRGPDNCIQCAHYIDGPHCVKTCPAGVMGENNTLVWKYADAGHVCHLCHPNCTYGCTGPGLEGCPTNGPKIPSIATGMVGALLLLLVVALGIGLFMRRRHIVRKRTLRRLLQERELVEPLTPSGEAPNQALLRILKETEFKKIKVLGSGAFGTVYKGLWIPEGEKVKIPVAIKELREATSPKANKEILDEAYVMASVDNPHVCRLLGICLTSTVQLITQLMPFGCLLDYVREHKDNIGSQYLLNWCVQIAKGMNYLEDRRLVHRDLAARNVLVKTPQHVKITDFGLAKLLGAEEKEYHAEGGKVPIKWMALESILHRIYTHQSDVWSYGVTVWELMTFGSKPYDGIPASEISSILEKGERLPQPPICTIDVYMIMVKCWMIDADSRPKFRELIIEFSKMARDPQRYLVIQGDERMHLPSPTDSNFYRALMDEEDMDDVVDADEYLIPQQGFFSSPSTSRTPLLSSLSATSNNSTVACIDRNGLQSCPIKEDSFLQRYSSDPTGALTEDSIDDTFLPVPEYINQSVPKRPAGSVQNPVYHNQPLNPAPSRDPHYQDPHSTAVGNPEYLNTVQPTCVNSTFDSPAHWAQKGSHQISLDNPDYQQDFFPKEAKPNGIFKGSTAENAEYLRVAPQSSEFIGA
T2 sequence (O60674 whole entry): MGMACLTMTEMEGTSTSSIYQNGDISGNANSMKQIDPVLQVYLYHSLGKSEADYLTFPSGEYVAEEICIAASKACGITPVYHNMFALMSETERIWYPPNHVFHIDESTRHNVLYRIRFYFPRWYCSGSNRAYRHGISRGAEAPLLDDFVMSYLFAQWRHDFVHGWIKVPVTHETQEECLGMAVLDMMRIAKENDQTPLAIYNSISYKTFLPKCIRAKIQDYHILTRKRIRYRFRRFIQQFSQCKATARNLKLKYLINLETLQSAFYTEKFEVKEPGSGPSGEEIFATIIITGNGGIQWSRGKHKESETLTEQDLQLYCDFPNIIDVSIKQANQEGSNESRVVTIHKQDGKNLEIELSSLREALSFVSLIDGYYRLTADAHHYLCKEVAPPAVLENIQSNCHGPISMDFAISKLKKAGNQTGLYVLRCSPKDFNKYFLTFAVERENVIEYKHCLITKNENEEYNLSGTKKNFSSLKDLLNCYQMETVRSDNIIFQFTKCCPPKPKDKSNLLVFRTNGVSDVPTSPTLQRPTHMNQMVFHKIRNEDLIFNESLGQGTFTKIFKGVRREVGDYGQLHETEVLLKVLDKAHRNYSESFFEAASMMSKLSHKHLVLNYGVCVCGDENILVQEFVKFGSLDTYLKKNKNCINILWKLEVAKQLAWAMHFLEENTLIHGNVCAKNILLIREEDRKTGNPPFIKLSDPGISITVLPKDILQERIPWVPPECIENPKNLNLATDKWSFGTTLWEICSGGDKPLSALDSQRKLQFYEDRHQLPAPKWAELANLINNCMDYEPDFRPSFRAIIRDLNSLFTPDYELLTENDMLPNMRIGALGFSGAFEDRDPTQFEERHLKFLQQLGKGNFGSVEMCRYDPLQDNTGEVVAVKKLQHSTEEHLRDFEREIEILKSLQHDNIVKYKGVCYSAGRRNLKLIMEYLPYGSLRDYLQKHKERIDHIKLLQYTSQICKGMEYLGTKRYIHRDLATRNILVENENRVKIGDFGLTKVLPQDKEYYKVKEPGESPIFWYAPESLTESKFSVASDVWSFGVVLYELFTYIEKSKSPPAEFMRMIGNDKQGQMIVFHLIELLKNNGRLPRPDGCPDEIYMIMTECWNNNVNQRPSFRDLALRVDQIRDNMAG
Chain of Tyrosine-protein kinase JAK1 (P23458 whole entry): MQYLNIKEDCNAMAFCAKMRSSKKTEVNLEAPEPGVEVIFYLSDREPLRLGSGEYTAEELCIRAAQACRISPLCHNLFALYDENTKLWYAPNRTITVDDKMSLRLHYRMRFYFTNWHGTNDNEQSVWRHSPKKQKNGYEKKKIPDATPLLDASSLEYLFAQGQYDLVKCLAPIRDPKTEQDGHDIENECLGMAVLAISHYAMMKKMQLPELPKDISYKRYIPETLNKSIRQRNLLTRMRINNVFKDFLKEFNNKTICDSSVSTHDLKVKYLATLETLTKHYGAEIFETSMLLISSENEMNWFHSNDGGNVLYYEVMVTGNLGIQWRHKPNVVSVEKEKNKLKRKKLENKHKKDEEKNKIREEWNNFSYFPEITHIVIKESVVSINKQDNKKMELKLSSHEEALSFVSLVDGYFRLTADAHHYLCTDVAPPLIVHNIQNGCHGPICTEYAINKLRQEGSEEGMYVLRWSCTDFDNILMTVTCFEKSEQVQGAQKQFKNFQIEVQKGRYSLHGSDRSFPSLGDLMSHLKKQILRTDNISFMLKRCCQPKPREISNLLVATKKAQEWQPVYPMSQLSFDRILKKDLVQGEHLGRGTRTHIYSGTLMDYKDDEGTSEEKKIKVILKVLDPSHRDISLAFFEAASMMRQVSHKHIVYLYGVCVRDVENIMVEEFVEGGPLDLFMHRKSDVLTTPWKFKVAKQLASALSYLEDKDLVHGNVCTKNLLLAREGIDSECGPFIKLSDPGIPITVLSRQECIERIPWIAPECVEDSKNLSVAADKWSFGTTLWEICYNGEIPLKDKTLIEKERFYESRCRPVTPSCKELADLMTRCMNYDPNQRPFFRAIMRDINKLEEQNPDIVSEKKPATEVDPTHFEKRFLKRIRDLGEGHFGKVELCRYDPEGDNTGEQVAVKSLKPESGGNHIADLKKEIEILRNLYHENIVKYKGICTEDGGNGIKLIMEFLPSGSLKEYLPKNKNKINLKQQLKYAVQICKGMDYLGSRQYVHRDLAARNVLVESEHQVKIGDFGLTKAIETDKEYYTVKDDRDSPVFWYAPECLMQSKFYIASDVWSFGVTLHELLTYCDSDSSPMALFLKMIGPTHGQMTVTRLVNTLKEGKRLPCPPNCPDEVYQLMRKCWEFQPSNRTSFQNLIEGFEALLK

`COc1ccccc1Nc1cc[nH]c(=O)c1C(=O)Nc1ccc(N2CCS(=O)(=O)CC2)cc1`: the Ki in data set [1] was above 1300 nM; in data set [2], 37 nM. For the same compound, in the data set listed under Homo sapiens [3], the Ratio Ki(app) is above 34.

`CN1CCN(c2ccc(NC(=O)c3c(Nc4ccnc(N)n4)cc[nH]c3=O)cc2)CC1`: the Ki in [1] is 850 nM; in data set [2] it was 4 nM. Also, the Ratio Ki(app) in the data set listed under Homo sapiens [4] was found to be 3; in the data set filed under Homo sapiens [3], 213; in the data set listed under Homo sapiens [5], 2. In addition, in [6], the inhibition result was “Active”.

For `CN1CCN(c2ccc(NC(=O)c3c(N)cc[nH]c3=O)cc2)CC1`, the Ki in [1] is above 2540 nM; in [2] it was 346 nM. Besides, the Ratio Ki(app) in the data set listed under Homo sapiens [3] was above 7.

On to `COc1ccccc1Nc1cc[nH]c(=O)c1C(=O)Nc1ccc(N2CCN(C)CC2)nc1`, for which the Ki in [1] is above 2500 nM; in data set [2] it was 78 nM. Moreover, in [7], the solubility kinetic at 24 h came to 65 µM (≈ 28.2 µg/mL). In data set [8], this compound yielded a pH-dependent lipophilicity (logD) of 2.6. Besides, the Ratio Ki(app) in the data set filed under Homo sapiens [3] is above 33.

On to `CN1CCN(c2ccc(NC(=O)c3c(Nc4ccccc4Cl)cc[nH]c3=O)cc2)CC1`, for which the Ki in data set [1] amounted to 1480 nM; in data set [2], 82 nM. Besides, in the data set filed under Homo sapiens [3], the Ratio Ki(app) came out at 18.

For the compound `COc1ccccc1Nc1cc[nH]c(=O)c1C(=O)Nc1ccc(N2CCN(C)CC2)c(C)c1`, in data set [2], the Ki turned out to be 26 nM. In addition, the Ratio Ki(app) in the data set filed under Homo sapiens [4] was determined as 42; in the data set filed under Homo sapiens [3], 16; in the data set filed under Homo sapiens [5], 0.9.

On to `CN1CCN(c2ccc(NC(=O)c3c(NCc4ccccc4)cc[nH]c3=O)cc2)CC1`, for which the Ki came to 349 nM in data set [1] and 350 nM in [2]. Moreover, in the data set filed under Homo sapiens [3], the Ratio Ki(app) worked out at 1.

For `CN1CCN(c2ccc(NC(=O)c3c(NCCc4ccc(Cl)cc4)cc[nH]c3=O)cc2)CC1`, the Ki was determined as 37 nM in [1] and 262 nM in data set [2]. Also, the Ratio Ki(app) in the data set filed under Homo sapiens [3] is below 1.

For `COc1ccccc1N(C)c1cc[nH]c(=O)c1C(=O)Nc1ccc(N2CCN(C)CC2)cc1`, the Ki in data set [1] was above 2540 nM; in data set [2] it was above 2060 nM. The Ratio Ki(app) in the data set filed under Homo sapiens [3] was determined as 1.

On to `COc1ccccc1Nc1cc[nH]c(=O)c1C(=O)Nc1ccc(C2CCN(C)CC2)cc1`, for which the Ki in data set [1] was 634 nM; in data set [2], 15 nM. Also, the solubility kinetic at 24 h in data set [7] turned out to be 61 µM (≈ 26.4 µg/mL). Further, the logD in data set [8] is 2.7. Moreover, a half-maximal response in data set [9] (EC50) required 433 nM. Moreover, the Ratio Ki(app) in the data set listed under Homo sapiens [3] came out at 29. The Ratio EC50 in the data set on H1975 was above 23.

Consider `CN1CCN(c2ccc(NC(=O)c3c(Nc4ccccn4)cc[nH]c3=O)cc2)CC1`, for which the Ki in data set [1] is above 2540 nM; in data set [2], 108 nM. In the data set listed under Homo sapiens [3], the Ratio Ki(app) was above 24.

Regarding `COc1ccccc1Nc1cc[nH]c(=O)c1C(=O)Nc1ccc(CN2CCN(C)CC2)cc1`, the Ki in [1] stood at 1200 nM; in data set [2] it was 51 nM. In the data set filed under Homo sapiens [3], the Ratio Ki(app) turned out to be 22.

On to `CN(C)c1ccc(NC(=O)c2c(NCCc3cccc(Cl)c3)cc[nH]c2=O)cc1`, for which the values for the Ki in data set [1] and in data set [2] were 757 nM and 290 nM, respectively. In addition, in the data set listed under Homo sapiens [3], the Ratio Ki(app) was determined as 1.

In the case of `CN1CCN(c2ccc(NC(=O)c3c(Nc4ccncn4)cc[nH]c3=O)cc2)CC1`, the values for the Ki in [1] and in data set [2] were above 2540 nM and 95 nM, respectively. Further, the Ratio Ki(app) in the data set listed under Homo sapiens [3] was above 27.

As to `Cc1ccccc1Nc1cc[nH]c(=O)c1C(=O)Nc1ccc(N2CCN(C)CC2)cc1`, the results for the Ki in [1] and in data set [2] were 2340 nM and 61 nM, respectively. The Ratio Ki(app) in the data set listed under Homo sapiens [3] came out at 38.

Consider `COc1ccccc1Nc1cc[nH]c(=O)c1-c1nc2c(C(C)C)cccc2[nH]1`, for which the Ki in data set [1] came to 2400 nM; in data set [2] it was 58 nM. In addition, the Ratio Ki(app) came to 2 in the data set listed under Homo sapiens [4], 42 in the data set filed under Homo sapiens [3] and 0.2 in the data set listed under Homo sapiens [5].

Regarding `CN1CCN(c2ccc(NC(=O)c3c(Nc4cccc(Cl)c4)cc[nH]c3=O)cc2)CC1`, the Ki in data set [1] is 2520 nM; in data set [2], 155 nM. Moreover, the Ratio Ki(app) in the data set filed under Homo sapiens [3] turned out to be 16.

`CN1CCN(c2ccc(NC(=O)c3c(Nc4ccncc4N)cc[nH]c3=O)cc2)CC1`: the values for the Ki in data set [1] and in [2] were above 1230 nM and 145 nM, respectively. Further, the Ratio Ki(app) in the data set filed under Homo sapiens [3] is above 8.

Regarding `COc1ccccc1Nc1cc[nH]c(=O)c1C(N)=O`, the figures for the Ki in data set [1] and in data set [2] were above 2500 nM and above 688 nM, respectively. The Ratio Ki(app) in the data set filed under Homo sapiens [3] is above 3.6.

For the compound `COc1ccccc1Nc1cc[nH]c(=O)c1C(=O)Nc1ccc(N2CCC(C)CC2)cc1`, the Ki was above 2500 nM in data set [1] and 625 nM in data set [2]. The Ratio Ki(app) in the data set filed under Homo sapiens [3] is above 4.1.

Turning to `COc1ccccc1Nc1cc[nH]c(=O)c1C(=O)Nc1ccc(N2CCN(C)CC2)cn1`, the Ki in data set [1] was above 2500 nM; in [2] it was above 2060 nM. The Ratio Ki(app) in the data set filed under Homo sapiens [3] stood at 1.

As for `CN1CCN(c2ccc(NC(=O)c3c(NC[C@@H](O)c4cccc(Cl)c4)cc[nH]c3=O)cc2)CC1`, the results for the Ki in data set [1] and in data set [2] were 18 nM and 65 nM, respectively. Also, the solubility kinetic at 24 h in data set [7] was determined as 11 µM (≈ 5.3 µg/mL). Further, a half-maximal response in data set [9] (EC50) required 412 nM. In addition, in the data set listed under Homo sapiens [3], the Ratio Ki(app) was below 1.

On to `CCc1cc(NC(=O)c2c(Nc3ccccc3OC)cc[nH]c2=O)ccc1N1CCN(C)CC1`, for which the Ki in [2] was 31 nM. In addition, the Ratio Ki(app) in the data set listed under Homo sapiens [4] is 104; in the data set filed under Homo sapiens [3] it was above 80; in the data set listed under Homo sapiens [5] it was 4.

In the case of `COc1ccccc1Nc1cc[nH]c(=O)c1C(=O)Nc1ccc(N2CCCN(C)CC2)cc1`, the results for the Ki in [1] and in data set [2] were 705 nM and 12 nM, respectively. In addition, the Ratio Ki(app) in the data set filed under Homo sapiens [3] stood at 57.

Regarding `CN1CCN(c2ccc(NC(=O)c3c(NCCc4cccc(Cl)c4)cc[nH]c3=O)cc2)CC1`, the Ki turned out to be 43 nM in [1] and 66 nM in [2]. Besides, the Ratio Ki(app) in the data set filed under Homo sapiens [3] stood at 1.

On to `COc1ccccc1Nc1cc[nH]c(=O)c1-c1nc2c(C(C)C)ccc(C)c2[nH]1`, for which the Ki in [2] was 88 nM. The Ratio Ki(app) in the data set filed under Homo sapiens [4] turned out to be 6; in the data set filed under Homo sapiens [3], 27; in the data set listed under Homo sapiens [5], 0.3.

As for `CN1CCN(c2ccc(NC(=O)c3c(Nc4ccc(Cl)cc4)cc[nH]c3=O)cc2)CC1`, the Ki in [1] is above 2540 nM; in [2], 629 nM. In the data set filed under Homo sapiens [3], the Ratio Ki(app) was above 4.

Take `COc1ccccc1Nc1cc[nH]c(=O)c1C(=O)Nc1ccc(N2CCN(C)CC2)cc1`: the Ki in [10] was 172 nM; in [1] it was 1090 nM; in data set [2], 19 nM; in [11], 9 nM. The solubility kinetic at 24 h in data set [7] worked out at 4 µM (≈ 1.73 µg/mL). In data set [8], the logD amounted to 3.5. Further, it took 1090 nM to reach a half-maximal effect in data set [9] (EC50). Further, the Ratio Ki(app) in the data set filed under Homo sapiens [4] turned out to be 9; in the data set filed under Homo sapiens [3], 58; in the data set listed under Homo sapiens [5], 0.5; in the data set filed under Homo sapiens [12] it was 10. Also, in data set [6], the inhibition result is “Active”. In the data set with H1975, the Ratio EC50 was found to be 5.

Turning to `CN1CCN(c2ccc(NC(=O)c3c(NCCc4ccccc4)cc[nH]c3=O)cc2)CC1`, the Ki in data set [1] was found to be 49 nM; in data set [2] it was 117 nM. The Ratio Ki(app) in the data set filed under Homo sapiens [3] is below 1.

Regarding `O=C(Nc1ccccc1)c1c(NCCc2cccc(Cl)c2)cc[nH]c1=O`, the Ki in [1] is 1210 nM; in [2] it was 330 nM. For the same compound, the Ratio Ki(app) in the data set listed under Homo sapiens [3] came to 2.

In the case of `CN1CCN(c2ccc(NC(=O)c3c(Nc4ccccc4)cc[nH]c3=O)cc2)CC1`, the Ki in data set [1] is above 2540 nM; in data set [2], 144 nM. Also, in the data set listed under Homo sapiens [3], the Ratio Ki(app) was above 18.

A word on the logD: it is the decadic logarithm of the distribution of all forms, ionised or not, between an organic phase and buffer at a given pH. Read a high logD as a more lipophilic compound. By EC50 is commonly meant the concentration needed to bring the measured effect to its halfway point. Read a high EC50 as a need for much substance.

The values are drawn from ChEMBL document CHEMBL3779874, “Pyridones as Highly Selective, Noncovalent Inhibitors of T790M Double Mutants of EGFR” (ACS Med Chem Lett, 2016).
